Measured values reported in the supplement of paper PMC10307832.

Tests used:
Assay in all cases: relative viability (nuclei count vs DMSO), 5 days (fraction); higher = more cells survive
[1] = compound: Cc1cc([C@@H](C)Nc2ccccc2C(=O)O)c2nc(N3CCOCC3)cc(=O)n2c1 [AZD6482] + Cc1cc(Nc2cc(N3CCN(C)CC3)nc(Sc3ccc(NC(=O)C4CC4)cc3)n2)n[nH]1 [Tozasertib] (partner 0.1 µM)
Procedure, shortened: (§1)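 Lung cancer cell lines were seeded in 1536-well plates and dosed by pin tool the next day, with either a single drug or a fixed anchor-drug dose combined with five library-drug doses (not always all listed) spaced in √10 steps. Five days later, one step fixed the cells and stained their nuclei (final 0.05% Triton X-100, 1% formaldehyde, 1 ug/ml Hoechst), and nuclei were counted on 4× images. Relative viability is the nuclei count in treated wells divided by the count in vehicle wells, and each value is the median of duplicate plates.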

[2] = compound: Cc1cc([C@@H](C)Nc2ccccc2C(=O)O)c2nc(N3CCOCC3)cc(=O)n2c1 [AZD6482] + O=C(c1cc(Cc2n[nH]c(=O)c3ccccc23)ccc1F)N1CCN(C(=O)C2CC2)CC1 [Olaparib] (partner 8 µM)
Procedure, shortened: as §1

[3] = compound: COc1cc2nc(N3CCCN(C)CC3)nc(NC3CCN(Cc4ccccc4)CC3)c2cc1OC + CS(=O)(=O)N1CCN(Cc2cc3nc(-c4cccc5[nH]ncc45)nc(N4CCOCC4)c3s2)CC1 [Pictilisib] (partner 1 µM)
Procedure, shortened: as §1

[4] = compound: COc1cc2nc(N3CCCN(C)CC3)nc(NC3CCN(Cc4ccccc4)CC3)c2cc1OC + COc1cc2c(Oc3ccc(NC(=O)C4(C(=O)Nc5ccc(F)cc5)CC4)cc3F)ccnc2cc1OCCCN1CCOCC1 [Foretinib] (partner 0.25 µM)
Procedure, shortened: as §1

Cell Line	relative viability ([1]; first compound 0.08 µM)	relative viability ([1]; first compound 0.253 µM)	relative viability ([1]; first compound 0.8 µM)	relative viability ([1]; first compound 2.53 µM)	relative viability ([1]; first compound 8 µM)	relative viability ([2]; first compound 0.08 µM)	relative viability ([2]; first compound 0.253 µM)	relative viability ([2]; first compound 0.8 µM)	relative viability ([2]; first compound 8 µM)	relative viability ([2]; first compound 2.53 µM)	relative viability ([3]; first compound 0.2 µM)	relative viability ([3]; first compound 0.6325 µM)	relative viability ([3]; first compound 2 µM)	relative viability ([3]; first compound 6.325 µM)	relative viability ([4]; first compound 0.2 µM)	relative viability ([4]; first compound 0.6325 µM)	relative viability ([4]; first compound 2 µM)	relative viability ([4]; first compound 6.325 µM)
NCI-H1648	0.538	0.463	0.588	0.351	0.409	0.575	0.823	0.715	0.638									
SK-MES-1	0.877	0.939	0.86	0.571	0.549	0.457	0.598	0.529	0.336	0.305	0.339	0.41	0.364	0.31	0.842	0.926	0.97	0.865
HCC-366	0.108	0.0944	0.0731	0.12	0.063	0.328	0.342	0.433	0.282	0.259	0.15	0.168	0.098	0.154	0.916	0.966	0.906	0.945
201T	0.904	0.889	0.88	0.766	0.875	0.839	0.8	0.872	0.848	0.727	0.742	0.717	0.64	0.683	1.13	1.08	1.09	1.11
HCC-827	0.379	0.405	0.422	0.342	0.287	0.653	0.594	0.515	0.996	0.432	1.04	1.09	0.636	0.886	1.06	1.12	1.05	1.02
NCI-H647	0.23	0.26	0.192	0.145	0.23	0.544	0.482	0.554	0.419	0.373		0.583	0.567	0.254	1.15	0.952	1.35	0.918
NCI-H2023	0.367	0.336	0.286	0.289	0.279	0.496	0.457	0.43	0.379	0.353	0.204	0.279	0.211	0.0903	0.943	0.834	0.834	0.455
NCI-H520	0.39	0.344	0.344	0.221	0.221	0.295	0.266	0.262	0.185	0.162	0.292	0.329	0.332	0.21	0.683	0.633	0.622	0.598
RERF-LC-KJ	0.447	0.513	0.49	0.465	0.388	0.787	0.963	0.886	0.667	0.963	0.458	0.559	0.585	0.579	0.905	0.927	0.904	0.857
A-427	0.219	0.214	0.188		0.209	0.5	0.718	0.739	0.66	0.514	0.755	0.728	0.679	0.675	0.918	0.977	1.13	1.09
NCI-H441	0.631	0.545	0.632		0.527	0.604	0.525	0.541	0.449		0.407		0.48	0.38	0.957	0.954	0.928	1.02
NCI-H1703						0.342	0.456	0.258	0.167	0.133	0.25	0.225	0.266	0.16	0.313	0.317	0.412	0.448
NCI-H1792						0.151	0.345	0.365	0.138	0.234	0.299	0.233	0.247	0.276				
Calu-6						0.516	0.493	0.533	0.543	0.527	0.924	0.978	0.953	0.743	0.867	0.865	0.983	0.903
SK-LU-1		0.334	0.295	0.242	0.261		0.452	0.474	0.359	0.405	0.702	0.604	0.559	0.401	0.839	0.79	0.783	0.653
PC-3 [JPC-3]	0.785	0.793	0.892	0.78	0.823	1.02	1.11	1.08	1.15	0.801	0.721	0.763	0.6	0.805	1.03	1.03	1.14	0.992
EMC-BAC-2	0.285	0.288	0.274	0.287	0.272	0.455	0.479	0.523	0.44	0.471	0.559	0.555	0.564	0.57	0.956	0.973	1.05	1.01
LK-2	0.142	0.162	0.15	0.182	0.168	0.916	0.731	0.581	0.432	0.73	0.621	0.565	0.669	0.632	1.49	0.932	1.13	1.12
NCI-H2126	0.786	0.804	0.669	0.423	0.561	0.877	0.904	0.867	0.57	0.615	0.505	0.557	0.456	0.47	1.09	1.15	1.16	1.09
NCI-H3122	0.355	0.348	0.344		0.351	0.608	0.729	0.657	0.616	0.585	0.589	0.634	0.601	0.478	0.915	1.02	0.955	0.968
